Among the test systems are BT-549 breast; HCT-116 colon; HOP-62 NSCLC; NCI-H460 lung; NCI/ADR-RES ovarian; OVCAR-5 ovarian; SF-539 CNS; SK-MEL-2 melanoma; SNB-75 CNS; U251 CNS.
Common to all, as to experiment: inhibition of tumour cell growth, NCI panel, 48 h

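Following 48 hours of exposure in 96-well plates, responses at five concentrations were used to interpolate endpoints linearly. GI50 = concentration required for 50% inhibition of growth. Definition used: TGI = concentration required for complete inhibition of growth.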

With `CCOC(=O)C1=C(C)NC2SC(=O)/C(=C\c3ccccc3O)N2C1c1ccccc1` (stereo not given), the GI50 with BT-549 breast was 23.3 µM; in the assay on HCT-116 colon, 23.6 µM; in the assay on HOP-62 NSCLC, 31.4 µM; with NCI-H460 lung, 24.3 µM; in the assay on NCI/ADR-RES ovarian, 23.3 µM; in the assay with OVCAR-5 ovarian it was 63 µM. In addition, the GI50 in the assay with SF-539 CNS was 35.5 µM; with SK-MEL-2 melanoma, 22.2 µM; in the assay on SNB-75 CNS it was 20.4 µM; with U251 CNS, 21.5 µM. Besides, the TGI with BT-549 breast is 59.8 µM; in the assay with HCT-116 colon, 63.6 µM; in the assay on HOP-62 NSCLC it was greater than 100 µM; in the assay on NCI-H460 lung, 79.4 µM; in the assay with NCI/ADR-RES ovarian it was 60.3 µM; in the assay on OVCAR-5 ovarian, greater than 100 µM. Moreover, the TGI is greater than 100 µM with SF-539 CNS, 59.3 µM in the assay with SK-MEL-2 melanoma, 70.8 µM in the assay with SNB-75 CNS and 49.6 µM in the assay on U251 CNS.
In the case of `Cc1cc(=O)[nH]o1`, the TGI with BT-549 breast, with HCT-116 colon, in the assay on HOP-62 NSCLC, in the assay on NCI-H460 lung, in the assay with NCI/ADR-RES ovarian and in the assay with OVCAR-5 ovarian was greater than 100 µM throughout. The TGI in the assay on SF-539 CNS, in the assay with SK-MEL-2 melanoma, in the assay on SNB-75 CNS and with U251 CNS was greater than 100 µM in each case.
`O=C(Nc1ccc(CN2CCOCC2)cc1)c1[nH]ncc1Nc1ncnc2sccc12`: the GI50 in the assay on BT-549 breast was 0.896 µM; in the assay with HCT-116 colon, 0.217 µM; in the assay on HOP-62 NSCLC, 0.669 µM; in the assay with NCI-H460 lung it was 0.314 µM; in the assay on NCI/ADR-RES ovarian, 0.578 µM; in the assay on OVCAR-5 ovarian, 0.904 µM. For the same compound, the GI50 with SF-539 CNS is 0.141 µM; with SK-MEL-2 melanoma it was 0.36 µM; in the assay with SNB-75 CNS, 0.0174 µM; with U251 CNS it was 0.281 µM. The TGI was 5.88 µM in the assay on BT-549 breast; 12.3 µM in the assay on HCT-116 colon; 41.6 µM in the assay with HOP-62 NSCLC; 10.9 µM with NCI-H460 lung; greater than 100 µM with NCI/ADR-RES ovarian; greater than 100 µM in the assay on OVCAR-5 ovarian. Further, the TGI in the assay on SF-539 CNS was 1.15 µM; in the assay with SK-MEL-2 melanoma, 2.14 µM; in the assay on SNB-75 CNS, 2.04 µM; with U251 CNS, 13.2 µM.
In the case of `O=C(Nc1cccc(Oc2nnc(Cl)c3ccccc23)c1)Nc1ccc(Cl)c(C(F)(F)F)c1`, the GI50 in the assay with BT-549 breast was 0.674 µM; in the assay with HCT-116 colon, 1.05 µM; in the assay with HOP-62 NSCLC, 1.98 µM; with NCI-H460 lung, 0.898 µM; in the assay on NCI/ADR-RES ovarian, 0.926 µM; in the assay with OVCAR-5 ovarian it was 1.24 µM. The GI50 in the assay with SF-539 CNS is 1.38 µM; in the assay on SK-MEL-2 melanoma, 0.698 µM; with SNB-75 CNS, 1.61 µM; with U251 CNS, 1.31 µM. Also, the TGI in the assay with BT-549 breast worked out at 3.07 µM; in the assay on HCT-116 colon, 3.51 µM; with HOP-62 NSCLC, 5.75 µM; in the assay with NCI-H460 lung, 3.44 µM; with NCI/ADR-RES ovarian it was 9.95 µM; in the assay with OVCAR-5 ovarian, 4.26 µM. In addition, the TGI in the assay on SF-539 CNS came out at 4.01 µM; in the assay with SK-MEL-2 melanoma it was 3.24 µM; in the assay with SNB-75 CNS, 5.63 µM; with U251 CNS it was 3.93 µM.
For `O=[N+]([O-])c1ccc2c(N3CCC(CCCC4CCN(c5ncnc6cc([N+](=O)[O-])ccc56)CC4)CC3)ncnc2c1`, the GI50 in the assay with BT-549 breast was 6.33 µM; in the assay with HCT-116 colon it was 0.514 µM; with HOP-62 NSCLC, greater than 32.2 µM; in the assay on NCI-H460 lung it was 23.9 µM; in the assay on NCI/ADR-RES ovarian, 0.658 µM; in the assay with OVCAR-5 ovarian, greater than 100 µM. The GI50 in the assay on SF-539 CNS is greater than 47.9 µM; with SK-MEL-2 melanoma, greater than 52.2 µM; with SNB-75 CNS, greater than 39.6 µM; in the assay with U251 CNS, greater than 42.2 µM. The TGI in the assay on BT-549 breast is greater than 70.6 µM; in the assay with HCT-116 colon it was 97.6 µM; in the assay with HOP-62 NSCLC, greater than 100 µM; with NCI-H460 lung, greater than 100 µM; with NCI/ADR-RES ovarian, greater than 100 µM; with OVCAR-5 ovarian it was greater than 100 µM. In addition, the TGI is greater than 100 µM in the assay with SF-539 CNS, greater than 85.3 µM with SK-MEL-2 melanoma, greater than 71.2 µM in the assay on SNB-75 CNS and greater than 100 µM in the assay with U251 CNS.
Turning to `CCOC(=O)c1c2c(n(Cc3ccccc3)c1C)-c1ccccc1C(=O)C2=O`, the GI50 was 15.7 µM in the assay with BT-549 breast; 11.6 µM with HCT-116 colon; 13.7 µM with HOP-62 NSCLC; 6.31 µM in the assay on NCI-H460 lung; 9.42 µM with NCI/ADR-RES ovarian; 15.5 µM with OVCAR-5 ovarian. For the same compound, the GI50 in the assay on SF-539 CNS is 18.7 µM; with SK-MEL-2 melanoma it was 18.4 µM; in the assay on SNB-75 CNS it was 10.7 µM; in the assay on U251 CNS, 8.75 µM. In addition, the TGI in the assay on BT-549 breast came to 29.7 µM; in the assay on HCT-116 colon it was 25.2 µM; in the assay with HOP-62 NSCLC it was 27.1 µM; in the assay with NCI-H460 lung it was 21.5 µM; in the assay on NCI/ADR-RES ovarian, 27.4 µM; in the assay on OVCAR-5 ovarian, 40.4 µM. Moreover, the TGI in the assay with SF-539 CNS was 34.4 µM; in the assay with SK-MEL-2 melanoma, 40.8 µM; in the assay with SNB-75 CNS, 24.7 µM; in the assay on U251 CNS, 20.8 µM.
Regarding `CNC(=O)c1ccc2cc(C3(O)CCn4cncc43)ccc2c1` (stereo not given), the GI50 with BT-549 breast, in the assay on HCT-116 colon, in the assay with HOP-62 NSCLC, with NCI-H460 lung, in the assay on NCI/ADR-RES ovarian and in the assay with OVCAR-5 ovarian was greater than 100 µM in each case. For the same compound, the GI50 with SF-539 CNS, with SK-MEL-2 melanoma, in the assay with SNB-75 CNS and with U251 CNS was greater than 100 µM each time. For the same compound, the TGI in the assay on BT-549 breast, in the assay with HCT-116 colon, with HOP-62 NSCLC, in the assay on NCI-H460 lung, in the assay on NCI/ADR-RES ovarian and in the assay with OVCAR-5 ovarian was greater than 100 µM throughout. Also, the TGI in the assay on SF-539 CNS, with SK-MEL-2 melanoma, in the assay with SNB-75 CNS and with U251 CNS was greater than 100 µM in each case.
As for `CN(C)CCNC(=O)Cn1cc([N+](=O)[O-])c(=O)c2ccccc21`, the TGI in the assay with BT-549 breast, in the assay with HCT-116 colon, in the assay on HOP-62 NSCLC, in the assay on NCI-H460 lung, in the assay on NCI/ADR-RES ovarian and with OVCAR-5 ovarian was greater than 100 µM throughout. The TGI in the assay on SF-539 CNS, in the assay with SK-MEL-2 melanoma, in the assay with SNB-75 CNS and in the assay with U251 CNS was greater than 100 µM throughout.

The values are drawn from PubChem BioAssay (NCI).
